Reference: patent publication US20060263830A1, “Interfacial biomaterials” (priority 2001, published 2006)

Legend:
[1] = AFM pull-off force measurements on polystyrene; type: binding; conditions: peptide on gold-coated AFM cantilever, PBS buffer, 300 nm/sec
Text: The adhesion strength and mode of binding are both IFBM and substrate dependent. To characterize and quantify the adhesion forces between IFBMs and synthetic and biological substrates, a state-of-the-art force spectrometer that employs a high precision, piezo driven flexure stage equipped with a capacitive displacement sensor with a position resolution of about 0.5 nm was used. A polystyrene binding peptide from the X6YX6 peptide library was used (a cysteine-terminated peptide containing the polystyrene-binding domain in the forward direction; CGSSLVGLHSYWSSPFF; SEQ ID NO:117). The cysteine-terminated peptides were then linked to a gold-coated atomic force microscope (AFM) cantilever by incubating the cantilever in a solution of the peptide (1 mg/ml). Pull-off force measurements were carried out in PBS buffer solution on a MultiMode AFM (Digital Instruments, now Veeco Instruments, Inc., Woodbury, N.Y., United States of America) by repeatedly engaging a polystyrene surface with the modified cantilever tip at a speed of 300 nm/sec. The mean adhesion force for the peptide was approximately 300 pN.

[2] = system: human umbilical vein endothelial cells (HUVECs); assay: HUVEC adhesion and spreading on binding-agent-coated polystyrene wells; type: cell-based; conditions: 25 mg/mL coating; light microscopy after 1-hour, 2-hour or overnight culture; vs polystyrene-binding peptide lacking cell-binding domain or uncoated
Method: A 25 mg/mL solution was prepared using a binding agent comprising the peptide sequence RGDFLSFVFPASAWGG (SEQ ID NO:72) in a mixture of 90 parts PBS pH 7.4 and 10 parts DMSO. Fifty (50) μl of the binding agent solution was to each of three wells of a 96-well polystyrene microtiter plate for a duration of 1 hour. In another 3 wells, 50 μl of a control peptide 25 mg/ml fluorescein-labeled FLSFVFPASAWGG (SEQ ID NO:1) was added. The wells were washed three times with PBS and non-specific protein binding sites were blocked with sterile-filtered BSA (3% in PBS) for 30 minutes with shaking at 25 rpm. […] Following 4 washes with PBS, human umbilical vein endothelial cells (HUVECs) in supplemented EBM media were seeded onto each well. Cell adhesion and spreading was monitored by light microscopy following a 1-hour, 2-hour, or overnight culture.

[3] = system: adult human dermal fibroblasts (NHDFs); assay: NHDF adhesion to IFBM-coated polystyrene; type: cell-based
Method: (§1) First, a 1.0 mg/ml solution of FFPYSHLGVLSSG-PEG (SEQ ID NO:104) was prepared in water. The solution was added to the wells of a 96 well polystyrene culture plate and incubated at 50° C. overnight. The wells were then washed twice with PBS before seeding with 300 μl of either cell type. Human fibroblast and endothelial cells were also seeded on untreated polystyrene (N=3) and peptide (non-pegylated) coated polystyrene (N=3). After overnight incubation at 37° C., the wells were washed 5 times in excess PBS, then fixed in ethanol and stained with eosin Y for cell counting and optical microscopy. Both NHDF and HUVEC cells lose their rounded morphology, spread, and adhere to the untreated control plastic. At higher magnification, marked membrane ruffling is evident.

[4] = system: human umbilical vein endothelial cells (HUVECs); assay: HUVEC adhesion to IFBM-coated polystyrene; type: cell-based
Method: as §1

[5] = Phage panning and ELISA for binding to polyurethane; conditions: phage-displayed peptide, SCX16S library
Method: To detect phage that specifically bound to titanium, conventional ELISAs were performed using an anti-M13 phage antibody conjugated to HRP, followed by the addition of chromogenic agent o-phenylenediamine in 10% hydrogen peroxide. Relative binding strengths of the phage were determined by absorbance measurements at 490 nm using a microtiter plate reader.
The SCX16S library (described in Example 1) was screened for binding to polyurethane. Phage were detected, isolated, amplified, and sequenced as described in Example 2.

Human chondrocytes = assay: Cell panning of phage library on chondrocytes; type: cell-based; conditions: phage-displayed peptide
Text: The SCX16S library (described in Example 1) was screened for binding to chondrocytes. The peptides of the library were of the format SCX16S, including 16 central random amino acids, terminal fixed serines and a single cysteine residue.
Human chondrocytes were obtained from Clonetics, Inc. (San Diego, Calif., United States of America) and grown to confluency on one well of a polystyrene 6-well plate in supplemented F-12 media (Sigma-Aldrich Corp., St. Louis, Mo., United States of America). The entire cell panning procedure was free of detergent. The library was pre-cleared of phage that specifically or non-specifically bind polystyrene by incubating phage in polystyrene wells for two hours prior to addition to the cellular target. In each round, nonspecific binding sites were blocked using 5% dry milk in PBS. Phage were detected, isolated, amplified, and sequenced as described in Example 2. A representative peptide has the sequence SCSVYDHKIGRDSFYSGCS (SEQ ID NO:101). A representative peptide also has a preference for chondrocytes greater than 10 fold over endothelial cells.

[6] = 1.0 mg/ml coating, overnight incubation at 37° C.
[7] = coated vs untreated polystyrene

In the case of “CGSSLVGLHSYWSSPFF (Polystyrene-binding peptide 117) [SEQ ID NO:117]”, the mean adhesion force [1] is reported as “approximately 300 pN”.
For FLSFVFPASAWGGSSGRGD [SEQ ID NO:72], the “cell adhesion and spreading” value [2] was “increased cell adhesion and cell spreading”.
With “FFPYSHLGVLSSG-PEG (PEG conjugated; Polystyrene-binding peptide 104) [SEQ ID NO:104, multi-functional peptide or interfacial biomaterial (IFBM) with PEG cell-repelling segment]” the “cell morphology and attachment on treated polystyrene” value [3, 6] was “maintain a round morphology and are not tightly adhered to the surface”, the “cell adhesion (cell counting)” value [3, 7] was “substantially lessened” and the “cell number (cell counting)” value [3, 7] was “dramatically reduced”. The “cell morphology and attachment on treated polystyrene” value [4, 6] was “maintain a round morphology and are not tightly adhered to the surface”, the “cell adhesion (cell counting)” value [4, 7] was “substantially lessened” and the “cell number (cell counting)” value [4, 7] was “dramatically reduced”.
In the case of “SCYVNGHNSVWVVVFWGVS (Polyurethane-binding peptide 1) [SEQ ID NO:23]”, the “specific binding to polyurethane” value [5] is reported as “specifically binds”.
For “SCSVYDHKIGRDSFYSGCS (Chondrocyte-binding peptide 101) [SEQ ID NO:101]”, the “preference for chondrocytes over endothelial cells” value (Human chondrocytes) was “greater than 10 fold”.
